Data from PMC7722097 (ChemMedChem, 2020).
Entries after “also recorded” stand apart in the source; their conditions may differ.

Experiments:
[1] = target: cIAP1-BIR3 (Homo sapiens, UniProt Q13490); assay: DELFIA displacement assay, cIAP1-BIR3; assay type: binding
[2] = target: cIAP2-BIR3 (Homo sapiens, UniProt Q13489); assay: DELFIA displacement assay, cIAP2-BIR3; assay type: binding
[3] = target: wt-BIR3 (Lys311) domain of XIAP (Homo sapiens, UniProt P98170); assay: Denaturation thermal shift, wt BIR3 of XIAP; conditions: for Thermal shift data ATm XIAP-BIR3: Table 2
wt-BIR3 (Lys311) domain of XIAP, sequence (P98170 253-347): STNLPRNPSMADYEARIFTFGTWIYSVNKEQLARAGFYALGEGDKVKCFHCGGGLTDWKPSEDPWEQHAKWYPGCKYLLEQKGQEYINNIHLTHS

[4] = target: HA-BIR3 of XIAP-expressing HEK293T cells (Homo sapiens, UniProt P98170); assay: Immunoblot of HA-BIR3 XIAP-expressing HEK293T cells; assay type: cell-based; conditions: 10 μM compound, 6 h, anti-HA antibody
HA-BIR3 of XIAP-expressing HEK293T cells, sequence (P98170 253-347 limits assumed): as the sequence (P98170 253-347) above

[5] = target: T1, BIR3 domain of XIAP (Homo sapiens, UniProt P98170); assay: Kinetic analysis using the DELFIA assay; assay type: binding
T1 sequence (P98170 253-347): as above

[6] = target: T1, BIR3 domain of XIAP; assay: DELFIA displacement assay, XIAP-BIR3; assay type: binding

cIAP1-BIR3, sequence (Q13490 258-363): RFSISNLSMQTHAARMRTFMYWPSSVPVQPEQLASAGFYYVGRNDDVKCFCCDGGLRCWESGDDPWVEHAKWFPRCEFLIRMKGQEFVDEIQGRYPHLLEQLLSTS
cIAP2-BIR3, sequence (Q13489 244-349): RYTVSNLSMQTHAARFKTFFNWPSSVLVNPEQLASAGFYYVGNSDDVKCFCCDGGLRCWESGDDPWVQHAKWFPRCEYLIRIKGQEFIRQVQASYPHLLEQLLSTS

CN[C@@H](C)C(=O)N[C@@H](CNCc1ccc(S(=O)(=O)F)cc1)C(=O)N1CCC[C@H]1C(=O)N[C@@H]1CCc2c(F)cccc21 [compound 12, 4-((((S)-3-((S)-2-(((R)-4-fluoro-2,3-dihydro-1Hinden-1-yl)carbamoyl)pyrrolidin-1-yl)-2-((S)-2(methylamino)propanamido)-3oxopropyl)amino)methyl)benzene-1-sulfonyl fluoride] showed an IC50 [1] of 22 ± 4 nM and an IC50 [2] of 58.5 ± 0.1 nM.

In the case of CN[C@@H](C)C(=O)N[C@@H](CNC(=O)c1ccc(S(=O)(=O)F)c(OC)c1)C(=O)N1CCC[C@H]1C(=O)N[C@@H]1CCc2c(F)cccc21 [compound 13, 4-(((S)-3-((S)-2-(((R)-4-fluoro-2,3-dihydro-1Hinden-1-yl)carbamoyl)pyrrolidin-1-yl)-2-((S)-2(methylamino)propanamido)-3-oxopropyl)carbamoyl)-2methoxybenzene-1-sulfonyl fluoride], the IC50 [1] is reported as 141 ± 15 nM, the “Thermal shift data ATm XIAP-BIR3” value ([3]; pre-incubation 30min (top value) at room temperature) is reported as 27.0 ± 0.2 °C and the “Thermal shift data ATm XIAP-BIR3” value ([3]; pre-incubation 2h (bottom value) at room temperature) is reported as 27.2 ± 0.1 °C. For the same compound, the “ΔTm, BIR3 domain of XIAP, as stated in text or legend” value ([3]; approximate values or bounds in running text, incubation 30 min or 2 h) was over 20 °C, the “Covalent adduct formation in cell (band shift)” value [4] was “band shift” and the “Stabilization of HA-BIR3 in cell (western blot band intensity)” value [4] was “stabilized HA-BIR3; also recorded: most intense band”. The IC50 [2] was 492 ± 26 nM, the Ki [5] was 85 ± 3 nM and the IC50 [6] was 15.6 ± 0.8 nM. The “Selectivity XIAP vs cIAP1/2, in words” value ([6]; from DELFIA IC50 values of Table 2) was “more potent towards XIAP; also recorded: significantly more selective for XIAP compared to cIAP1/2”.
